Laboratory results reported in US9145424B2, “Treatment of amyotrophic lateral sclerosis” (Northwestern University, priority 2008, dated 2015).
Like-named read-outs stand apart in the source and are kept apart here.

System: PC12 cells that express mutant G93A SOD1
Test: Mutant SOD1-induced cytotoxicity protection assay
Settings: for Corresponding % viability: rat, 48 h
Description: This idea was tested by examining the sensitivity of PC12 cells to SOD1 aggregates in the presence and absence of proteasome inhibitor MG132. PC12 cells expressing no SOD1, wild type SOD1, G85R SOD1 or G93A SOD1 were grown with or without MG132 (FIG. 1).
PC12 cells expressing G93A SOD1 were treated with 100 nM MG132 with or without co-treatment with geldanamycin or radicicol.

[1] = Rattus norvegicus, PC-12, read-out: Best EC50, PC12 G93A SOD1 cells, MG132, calcein-AM viability
[2] = Rattus norvegicus, PC-12, read-out: EC50 after Normalization, normalised with the corresponding 3299 EC50
[3] = read-out: Best EC50, PC12 G93A SOD1 cells, MG132, calcein-AM viability
[4] = read-out: EC50 after Normalization, normalised with the corresponding 3299 EC50

Structure (SMILES) | EC50 [1] [nM] | Corresponding % viability [%] | EC50 [2] [nM] | EC50 [3] [nM] | EC50 [4] [nM]
O=c1cc(CSc2ccccc2)[nH][nH]1 [CMB-053526-1] | 6850 | 77 |  |  | 
CC(C)(C)c1ccc(SCc2cc(=O)[nH][nH]2)cc1 [CMB-053527-1] | 5380 | 150 | 2310 |  | 
O=c1cc(CSc2ccc([N+](=O)[O-])cc2)[nH][nH]1 [CMB-053528-1] | 5590 | 136 | 2400 |  | 
O=c1cc(CSc2ccc(Cl)cc2)[nH][nH]1 [CMB-053529-1] |  | 93 | 1930 | 4490 | 
O=C1NN=C(CSc2ccccc2)C1=Cc1ccccc1 [CMB-053530-1] | > 32000 |  |  |  | 
O=c1cc(CSc2ccc(Br)cc2)[nH][nH]1 [CMB-053543-1] | 4240 | 94 | 1800 |  | 
O=c1cc(CSc2ccc(Cl)c(Cl)c2)[nH][nH]1 [CMB-053544-1] | 2600 | 113 | 1890 |  | 
O=c1cc(CSc2ccc(Cl)cc2Cl)[nH][nH]1 [CMB-053545-1] | 1580 | 124 | 1150 |  | 
O=c1cc(CSc2ccc(Cl)cc2)[nH]n1-c1ccccc1 [CMB-086473-1] | 5110 | 109 | 3460 |  | 
O=c1cc(C[S+]([O-])c2ccc(Cl)cc2)[nH]n1-c1ccccc1 (stereo not shown) [CMB-086474-1] | > 32000 |  |  |  | 
O=c1cc(CS(=O)(=O)c2ccc(Cl)cc2)[nH][nH]1 [CMB-086475-1] | 6920 | 110 | 4700 |  | 
CN(C)c1ccc(SCc2cc(=O)[nH][nH]2)cc1 [CMB-086476-1] | 1650 | 77 |  |  | 
COc1ccc(SCc2cc(=O)[nH][nH]2)cc1 [CMB-086477-1] | 4210 | 102 | 1810 |  | 
O=c1cc(CSc2ccc(F)cc2)[nH][nH]1 [CMB-086478-1] | 4730 | 104 | 3440 |  | 
Cc1ccc(C)c(SCc2cc(=O)[nH][nH]2)c1 [CMB-086479-1] | 220 | 77 |  |  | 
O=c1cc(CSc2c(Cl)cccc2Cl)[nH][nH]1 [CMB-086480-1] | 260 | 142 | 950 |  | 
Cc1cc(SCc2cc(=O)[nH][nH]2)c(C)cc1Cl [CMB-086481-1] |  | 140 | 390 | 430 | 
Cc1cc([S+]([O-])Cc2cc(=O)[nH][nH]2)c(C)cc1Cl (stereo not shown) [CMB-086482-1] | 4470 | 123 | 2880 |  | 
O=c1cc(CSc2ccc(F)cc2Cl)[nH][nH]1 [CMB-086832-1] | 1610 | 68 |  |  | 
O=c1cc(CSc2cccc(Cl)c2)[nH][nH]1 [CMB-086833-1] | 250 | 148 | 1110 |  | 
O=c1cc(CSc2ccccc2Cl)[nH][nH]1 [CMB-086834-1] | 840 | 123 | 3050 |  | 
O=c1cc(CSc2cc(Cl)cc(Cl)c2)[nH][nH]1 [CMB-086835-1] |  | 134 | 170 | 80 | 
O=c1cc(CSc2cc(Cl)cc(Cl)c2)[nH][nH]1 [CMB-086835-2] |  | 129 |  | 300 | 290
O=c1cc(CSc2ccc(Cl)cc2)[nH][nH]1 [CMB-086836-1] | 4140 | 75 |  |  | 
O=c1cc(CSc2ccc(-c3ccccc3)cc2)[nH][nH]1 [CMB-086883-1] | 9440 | 115 | 4060 |  | 

Structure (SMILES) | EC50 [1] [nM] | Corresponding % viability [%] | EC50 [2] [nM] | EC50 [3] [nM] | EC50 [4] [nM]
CC(C)c1ccccc1SCc1cc(=O)[nH][nH]1 [CMB-086899-1] | 400 | 106 | 480 |  | 
O=c1cc(CSCCOc2ccccc2)[nH][nH]1 [CMB-086900-1] | 6210 | 97 | 7520 |  | 
CCc1ccccc1SCc1cc(=O)[nH][nH]1 [CMB-086901-1] | 2060 | 106 | 2500 |  | 
O=c1cc(COc2ccc(Cl)cc2)[nH][nH]1 [CMB-086902-1] |  | 131 | 650 | 570 | 
O=c1cc(COc2ccc(Cl)cc2)[nH][nH]1 [CMB-086902-2] |  | 117 |  | 690 | 790
O=c1cc(COc2ccc(Cl)cc2)[nH][nH]1 [CMB-086902-3] |  | 120 |  | 3430 | 770
CCc1ccc(S(=O)(=O)Cc2cc(=O)[nH][nH]2)cc1 [CMB-087210-1] | 990 | 101 | 900 |  | 
CC(C)c1ccc(S(=O)(=O)Cc2cc(=O)[nH][nH]2)cc1 [CMB-087211-1] | 750 | 103 | 680 |  | 
CCCCc1ccc(S(=O)(=O)Cc2cc(=O)[nH][nH]2)cc1 [CMB-087212-1] | 990 | 93 | 900 |  | 
Cc1cc(S(=O)(=O)Cc2cc(=O)[nH][nH]2)c(C)cc1Cl [CMB-087213-1] | 2280 | 116 | 1470 |  | 
CCc1cccc(OCc2cc(=O)[nH][nH]2)c1 [CMB-087214-1] | 1120 | 125 | 720 |  | 
CC(C)(C)c1cccc(OCc2cc(=O)[nH][nH]2)c1 [CMB-087215-1] | 1060 | 141 | 870 |  | 
O=c1cc(COc2cc(Cl)cc(Cl)c2)[nH][nH]1 [CMB-087229-1] |  | 129 |  | 50 | 67
O=c1cc(COc2cc(Cl)cc(Cl)c2)[nH][nH]1 [CMB-087229-5] |  | 123 |  | 550 | 310
O=c1cc(CS(=O)(=O)c2cc(Cl)cc(Cl)c2)[nH][nH]1 [CMB-087235-1] | 360 | 130 | 760 |  | 
O=c1cc(CS(=O)(=O)c2cc(Cl)cc(Cl)c2)[nH][nH]1 [CMB-087235-2] |  | 132 |  | 670 | 1410
CCc1ccc(OCc2cc(=O)[nH][nH]2)cc1 [CMB-087241-1] | 3290 | 88 | 1960 |  | 
O=c1cc(COc2ccc(Cl)c(Cl)c2)[nH][nH]1 [CMB-087242-1] | 130 | 136 | 580 |  | 
O=c1cc(COc2cc(C(F)(F)F)cc(C(F)(F)F)c2)[nH][nH]1 [CMB-087260-1] | 130 | 120 | 580 |  | 
Cn1[nH]c(COc2cc(Cl)cc(C(F)(F)F)c2)cc1=O [CMB-087264-1] | 6670 | 109 | 5130 |  | 
Cn1[nH]c(COc2ccc(Cl)cc2)cc1=O [CMB-087362-1] | 7600 | 107 | 5850 |  | 
Cn1c(COc2cc(Cl)cc(Cl)c2)cc(=O)n1C [CMB-087363-1] | > 32000 |  |  |  | 
O=c1cc(COc2cc(F)cc(F)c2)[nH][nH]1 [CMB-087627-1] | 3210 | 125 | 1070 |  | 
O=c1cc(COc2cc(Br)cc(Br)c2)[nH][nH]1 [CMB-087628-1] | 1540 | 125 | 510 |  | 
O=c1cc(COc2cccc(Br)c2)[nH][nH]1 [CMB-087642-1] | 3060 | 144 | 1020 |  | 
